Results as given in the NIST ThermoML archive (doi:10.1021/acs.jced.7b00065).
± gives the expanded uncertainty stated by the source.

Assays:
[1] = Crystal; DTA
[2] = Molar enthalpy of transition or fusion; details: Crystal; DSC

In the case of `Cn1c(=O)c2[nH]cnc2n(C)c1=O` [3,7-dihydro-1,3-dimethyl-1H-purine-2,6-dione], the Normal melting temperature [1] is reported as 272.03 ± 1.1 °C and the “Molar enthalpy of transition or fusion” value [2] is reported as 28.9 ± 1.8 kJ/mol.
